Reference: patent US10071963B2, “Polymorphic form of N-[2-(6-fluoro-1H-indol-3-yl)ethyl]-3-(2,2,3,3-tetrafluoropropoxy)benzylamine hydrochloride for the treatment of Alzheimer's disease” (H. Lundbeck A/S, priority 2014, dated 2018)

Experiments:
Type in all cases: physicochemical
[1] = Slurry experiments of polymorphic form I in solvents, solid evaluated by XRPD; settings: no solvate formed, hydrochloride
Procedure: 6 mL of a solvent or solvent mixture is added into a glass vial together with polymorphic form I of N-[2-(6-fluoro-1H-indol-3-yl)ethyl]-3-(2,2,3,3-tetrafluoropropoxy)benzylamine hydrochloride. The added amount of compound is determined by the expected solubility in the relevant solvent or solvent system. If a clear solution is obtained anti-solvent and/or additional polymorphic form I of N-[2-(6-fluoro-1H-indol-3-yl)ethyl]-3-(2,2,3,3-tetrafluoropropoxy)benzylamine hydrochlorideis added until it is a suspension at the relevant temperature. The suspension is slurred for a prolonged period of time. The result of the slurry experiment is evaluated by filtering off the solid material and measuring XRPD on the isolated solid.
(§1) 6 mL of a toluene/acetonitrile (4:1) solvent mixture was added into a glass vial and 100 mg polymorphic form I of N-[2-(6-fluoro-1H-indol-3-yl)ethyl]-3-(2,2,3,3-tetrafluoropropoxy)benzylamine hydrochloride was added. The resulting suspension was heated to 50° C. A clear solution was obtained and another 50 mg was added. The suspension was stirred for one month at 50° C. Polymorphic form III of N-[2-(6-fluoro-1H-indol-3-yl)ethyl]-3-(2,2,3,3-tetrafluoropropoxy)benzylamine hydrochloride was obtained as evaluated by XRPD.
as §1, with “an acetone/heptane (1:4)” for “a toluene/acetonitrile (4:1)”, “C.” for “C. A clear solution was obtained and another 50 mg was added.”, “week” for “month”
6 mL of a methanol/toluene (1:9) solvent mixture was added into a glass vial and 100 mg polymorphic form I of N-[2-(6-fluoro-1H-indol-3-yl)ethyl]-3-(2,2,3,3-tetrafluoropropoxy)benzylamine hydrochloride was added. After stirring another 1 mL of the anti-solvent (toluene) was added +50 mg polymorphic form I of N-[2-(6-fluoro-1H-indol-3-yl)ethyl]-3-(2,2,3,3-tetrafluoropropoxy)benzylamine hydrochloride. […] To the 4 mL solutions another 1 mL of toluene was added and additional 50 mg polymorphic form I of N-[2-(6-fluoro-1H-indol-3-yl)ethyl]-3-(2,2,3,3-tetrafluoropropoxy)benzylamine hydrochloride. The resulting suspension was heated to 50° C. A clear solution was obtained and substance was added until a suspension was obtained. The suspension was stirred for one week at 50° C. Polymorphic form III of N-[2-(6-fluoro-1H-indol-3-yl)ethyl]-3-(2,2,3,3-tetrafluoropropoxy)benzylamine hydrochloride was obtained as evaluated by XRPD.
6 mL of isopropyl acetate was added into a glass vial and 50 mg polymorphic form I of N-[2-(6-fluoro-1H-indol-3-yl)ethyl]-3-(2,2,3,3-tetrafluoropropoxy)benzylamine hydrochloride was added. The resulting suspension was heated to 50° C. A clear solution was obtained and another 50 mg polymorphic form I of N-[2-(6-fluoro-1H-indol-3-yl)ethyl]-3-(2,2,3,3-tetrafluoropropoxy)benzylamine hydrochloride was added. Substance was added until a suspension was obtained at 50° C. The suspension was stirred for one week at 50° C. Polymorphic form III of N-[2-(6-fluoro-1H-indol-3-yl)ethyl]-3-(2,2,3,3-tetrafluoropropoxy)benzylamine hydrochloride was obtained as evaluated by XRPD.
6 mL of ethyl acetate was added into a glass vial and 150 mg polymorphic form I of N-[2-(6-fluoro-1H-indol-3-yl)ethyl]-3-(2,2,3,3-tetrafluoropropoxy)benzylamine hydrochloride was added. The resulting suspension was heated to 50° C. on a thermal stirrer plate. A clear solution was obtained and 50 mg polymorphic form I of N-[2-(6-fluoro-1H-indol-3-yl)ethyl]-3-(2,2,3,3-tetrafluoropropoxy)benzylamine hydrochloride was added. Polymorphic form I of N-[2-(6-fluoro-1H-indol-3-yl)ethyl]-3-(2,2,3,3-tetrafluoropropoxy)benzylamine hydrochloride was added until a suspension was obtained. The suspension was stirred for one month at 50° C. […]

[2] = Relative stability of polymorphic form I, II and III (competitive slurry in saturated solution); settings: II and III in equal amounts, hydrochloride
Procedure: A saturated solution was prepared by heating 1.6 mL isopropyl acetate and 0.4 mL heptane to 70° C. and adding 50 mg of polymorphic form I of N-[2-(6-fluoro-1H-indol-3-yl)ethyl]-3-(2,2,3,3-tetrafluoropropoxy)benzylamine hydrochloride.
The supernatant was divided into two ampoules and kept at 60° C. and 70° C.
5 mg of polymorphic form I, II and III of N-[2-(6-fluoro-1H-indol-3-yl)ethyl]-3-(2,2,3,3-tetrafluoropropoxy)benzylamine hydrochloride was added to the 60° C. solution and left stirring at 60° C. for one and four days, respectively.
2.5 mg of polymorphic form I, II and III of N-[2-(6-fluoro-1H-indol-3-yl)ethyl]-3-(2,2,3,3-tetrafluoropropoxy)benzylamine hydrochloride was added to the 70° C. solution and left without stirring at 70° C. for three days.

[3] = Thermodynamic solubility in organic solvents; settings: room temperature (about 23° C.); for Solubility: HPLC at 217 nm, hydrochloride
Procedure: Thermodynamic solubility of polymorphic form I and III of N-[2-(6-fluoro-1H-indol-3-yl)ethyl]-3-(2,2,3,3-tetrafluoropropoxy)benzylamine hydrochloride was measured by shaking an excess amount of the two polymorphic forms in the organic solvent in a sealed container at room temperature (about 23° C.). After equilibrium was attained, a sample was withdrawn, the solid filtered or centrifuged off and the clear filtrate/supernatant was assayed by HPLC at 217 nm. The precipitate was evaluated by XRPD to determine the polymorphic form.

[4] = 70° C., without stirring, three days
[5] = isopropyl acetate, 60° C., one and four days

| Relative thermodynamic stability of the polymorphic forms [2, 4] | Relative thermodynamic stability of the polymorphic forms [2, 5] | Solubility ([3]; 2-butanol) | Solubility ([3]; Isopropanol) | Solubility ([3]; Isopropyl acetate) | SMILES | Transformation on slurrying / relative solubility and thermodynamic stability ([1]; slurried at 5° C.) | Transformation on slurrying / relative solubility and thermodynamic stability ([1]; slurried at 25° C.) | Transformation on slurrying / relative solubility and thermodynamic stability ([1]; slurried at 50° C.) | Relative solubility and thermodynamic stability ([3]; organic solvents, compared with polymorphic form I) |
| --- | --- | --- | --- | --- | --- | --- | --- | --- | --- |
| vanished | transforming into polymorphic form II | 9.3 mg base/mL | 24.5 mg base/mL | 3.0 mg base/mL | Cl.Fc1ccc2c(CCNCc3cccc(OCC(F)(F)C(F)F)c3)c[nH]c2c1 [polymorphic form III, N-[2-(6-fluoro-1H-indol-3-yl)ethyl]-3-(2,2,3,3-tetrafluoropropoxy)benzylamine hydrochloride] | less soluble and therefore thermodynamically stable | less soluble and therefore thermodynamically stable | less soluble and therefore thermodynamically stable | slightly less soluble and therefore thermodynamically stable |
| – | less stable than polymorphic form III | 10.5 mg base/mL | 25.2 mg base/mL | 3.4 mg base/mL | Cl.Fc1ccc2c(CCNCc3cccc(OCC(F)(F)C(F)F)c3)c[nH]c2c1 [polymorphic form I, N-[2-(6-fluoro-1H-indol-3-yl)ethyl]-3-(2,2,3,3-tetrafluoropropoxy)benzylamine hydrochloride] | transformed into polymorphic form III | transformed into polymorphic form III | transformed into polymorphic form III | – |
| thermodynamically stable | thermodynamically stable | – | – | – | Cl.Fc1ccc2c(CCNCc3cccc(OCC(F)(F)C(F)F)c3)c[nH]c2c1 [polymorphic form II, N-[2-(6-fluoro-1H-indol-3-yl)ethyl]-3-(2,2,3,3-tetrafluoropropoxy)benzylamine hydrochloride] | – | – | – | – |
